Assay results reported in patent US8778871B2 (Takeda Pharmaceutical Company Limited, priority 2004, dated 2014).
Non-standard residues stand in square brackets, D forms with d. Residues, ends and D or L forms follow the SMILES beside them. Primed or numbered codes have the meaning given here. *: point of attachment. Arg(NO2) = N=C(NCCC[C@H](N)C(=O)O)N[N+](=O)[O-]; Cyclohexanecarbonyl = O=C(C1CCCCC1)*; Arg(Me) = CNC(=N)NCCC[C@H](N)C(=O)O; hArg = N=C(N)NCCCC[C@H](N)C(=O)O; hPhe = N[C@@H](CCc1ccccc1)C(=O)O; Cha = N[C@@H](CC1CCCCC1)C(=O)O; NMeN = CN[C@@H](CC(N)=O)C(=O)O; NMeS = CN[C@@H](CO)C(=O)O; Abu = CC[C@H](N)C(=O)O; Dap = NC[C@H](N)C(=O)O; Aib = CC(C)(N)C(=O)O; Bz = O=C(c1ccccc1)*; azaGly = NNC(=O)O

Biological target: T1, hOT7T175 (Homo sapiens, UniProt Q969F8, L364H)
T1 construct: expressed in transfected cells
T1 sequence (Q969F8 whole entry L364H): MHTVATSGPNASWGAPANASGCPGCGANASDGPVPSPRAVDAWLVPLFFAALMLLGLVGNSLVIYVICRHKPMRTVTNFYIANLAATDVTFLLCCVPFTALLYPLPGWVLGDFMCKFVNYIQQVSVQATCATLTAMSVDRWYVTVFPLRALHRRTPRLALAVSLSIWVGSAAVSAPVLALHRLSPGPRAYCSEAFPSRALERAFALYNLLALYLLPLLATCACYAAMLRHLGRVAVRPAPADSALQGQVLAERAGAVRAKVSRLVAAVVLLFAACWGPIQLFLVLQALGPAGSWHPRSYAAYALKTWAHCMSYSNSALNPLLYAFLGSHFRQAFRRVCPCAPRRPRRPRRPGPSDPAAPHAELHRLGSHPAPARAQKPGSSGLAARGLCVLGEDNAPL
Assay type: cell-based
Conditions: hOT7T175/CHO, FLIPR, evaluation for 40 seconds after initiation of the reaction
Experimental: The intracellular Ca ion level-increasing activity was measured using FLIPR as in TEST EXAMPLE 2.

Row | Molecule | Specific Act. (EC50/MS10 EC50)
1 | Ac-[dY][dW]NTF[azaGly]LKW-NH2 [Compound No. 639] | 2
2 | D-Tyr-D-Pya(4)-Asn-Hyp-Phe-AzaGly-Leu-Arg(Me)-Trp-NH2 [Compound No. 527] | 3.3
3 | 3-Phenylpropionyl-Asn-Aze(2)-Phe-AzaGly-Leu-Arg(Me)-Trp-NH2 [Compound No. 532] | 1.0
4 | Ac-[dY][dW]NTF[azaGly]LR(Et)W-NH2 [Compound No. 609] | 0.9
5 | Ac-[dY][dW][NMeN]TF[azaGly]L[Arg(Me)]W-NH2 [Compound No. 655] | 4.7
6 | Ac-[dY][dW]NTF[azaGly]L[Arg(NO2)]W-NH2 [Compound No. 605] | 3.9
7 | Ac-[dY][dW]NTF[azaGly]L[Arg(Me)][hPhe]-NH2 [Compound No. 594] | 2.1
8 | Ac-D-Tyr-D-Trp-Asn-Thr-Phe-Gly-Aib-Arg(Me)-Trp-NH2 (Ac-[dY][dW]NTFG[Aib][Arg(Me)]W-NH2; SMILES CNC(=N)NCCC[C@H](NC(=O)C(C)(C)NC(=O)CNC(=O)[C@H](Cc1ccccc1)NC(=O)[C@@H](NC(=O)[C@H](CC(N)=O)NC(=O)[C@@H](Cc1c[nH]c2ccccc12)NC(=O)[C@@H](Cc1ccc(O)cc1)NC(C)=O)[C@@H](C)O)C(=O)N[C@@H](Cc1c[nH]c2ccccc12)C(N)=O) [Compound No. 700] | 0.8
9 | CC[C@H](C)[C@H](NC(=O)[C@H](N)Cc1ccc(O)cc1)C(=O)N[C@@H](CC(N)=O)C(=O)N[C@@H](CO)C(=O)N[C@@H](Cc1ccccc1)C(=O)NNC(=O)N[C@@H](CC(C)C)C(=O)N[C@@H](CCCNC(=N)NC)C(=O)N[C@@H](Cc1ccccc1)C(N)=O [Compound No. 240, D-Tyr-Ile-Asn-Ser-Phe-AzaGly-Leu-Arg(Me)-Phe-NH2] (H-[dY]INSF[azaGly]L[Arg(Me)]F-NH2) | 4.9
10 | D-Tyr-D-Pya(4)-Asn-Tle-Phe-AzaGly-Leu-Arg(Me)-Trp-NH2 [Compound No. 529] | 1.8
11 | 3-Phenylpropionyl-Asn-Ser(Ac)-Phe-AzaGly-Leu-Arg(Me)-Trp-NH2 [Compound No. 546] | 1.9
12 | Ac-D-Tyr-D-Trp-Asp(NMe2)-Thr-Phe-AzaGly-Leu-Arg(Me)-Trp-NH2 [Compound No. 703] | 3.7
13 | Ac-D-Tyr-D-Trp-Asn-Thr-Phe-AzaGly-Abu-Arg(Me)-Trp-NH2 (Ac-[dY][dW]NTF[azaGly][Abu][Arg(Me)]W-NH2; SMILES CC[C@H](NC(=O)NNC(=O)[C@H](Cc1ccccc1)NC(=O)[C@@H](NC(=O)[C@H](CC(N)=O)NC(=O)[C@@H](Cc1c[nH]c2ccccc12)NC(=O)[C@@H](Cc1ccc(O)cc1)NC(C)=O)[C@@H](C)O)C(=O)N[C@@H](CCCNC(=N)NC)C(=O)N[C@@H](Cc1c[nH]c2ccccc12)C(N)=O) [Compound No. 698] | 2.2
14 | Ac-[dY][dW]NTA[azaGly]L[Arg(Me)]W-NH2 [Compound No. 631] | 2
15 | Benzoyl-D-Trp-Asn-Thr-Phe-AzaGly-Leu-Arg(Me)-Trp-NH2 (Bz-[dW]NTF[azaGly]L[Arg(Me)]W-NH2; SMILES CNC(=N)NCCC[C@H](NC(=O)[C@H](CC(C)C)NC(=O)NNC(=O)[C@H](Cc1ccccc1)NC(=O)[C@@H](NC(=O)[C@H](CC(N)=O)NC(=O)[C@@H](Cc1c[nH]c2ccccc12)NC(=O)c1ccccc1)[C@@H](C)O)C(=O)N[C@@H](Cc1c[nH]c2ccccc12)C(N)=O) [Compound No. 669] | 0.5
16 | 3-Phenylpropionyl-Asn-Pro-Phe-AzaGly-Leu-Arg(Me)-Trp-NH2 [Compound No. 524] | 1.1
17 | Ac-Tyr-D-Pya(4)-Asn-Thr-Phe-AzaGly-Leu-Arg(Me)-Trp-NH2 [Compound No. 611] | 1.7
18 | Cyclohexanecarbonyl-D-Trp-Asn-Thr-Phe-AzaGly-Leu-Arg(Me)-Trp-NH2 (Cyclohexanecarbonyl-[dW]NTF[azaGly]L[Arg(Me)]W-NH2; SMILES CNC(=N)NCCC[C@H](NC(=O)[C@H](CC(C)C)NC(=O)NNC(=O)[C@H](Cc1ccccc1)NC(=O)[C@@H](NC(=O)[C@H](CC(N)=O)NC(=O)[C@@H](Cc1c[nH]c2ccccc12)NC(=O)C1CCCCC1)[C@@H](C)O)C(=O)N[C@@H](Cc1c[nH]c2ccccc12)C(N)=O) [Compound No. 668] | 1.2
19 | Ac-D-Tyr-D-Trp-Asn-Thr-Phe-AzaGly-Leu-Pya(4)-Trp-NH2 (Ac-[dY][dW]NTF[azaGly]L-{Pya(4)-Trp-NH2}) [Compound No. 688] | 9.7
20 | Glycoloyl-D-Trp-Asn-Thr-Phe-AzaGly-Leu-Arg(Me)-Trp-NH2 (Glycoloyl-[dW]NTF[azaGly]L[Arg(Me)]W-NH2) [Compound No. 680] | 2.5
21 | Ac-[dY][dW]NTF[azaGly]F[Arg(Me)]W-NH2 [Compound No. 643] | 2.5
22 | Ac-[dE][dW]NTF[azaGly]L[Arg(Me)]W-NH2 [Compound No. 622] | 2.8
23 | Ac-[dY][dW]NTF[azaGly]L[hArg]W-NH2 [Compound No. 645] | 1.1
24 | Ac-D-Tyr-Pya(4)-Asn-Thr-Phe-AzaGly-Leu-Arg(Me)-Trp-NH2 [Compound No. 624] | 1.2
25 | Ac-D-Tyr-D-Trp-Asn-Thr-Phe-AzaGly-Leu-Arg(Me2)asym-Trp-NH2 [Compound No. 607] | 2.2

Row | Molecule | Specific Act. (EC50/MS10 EC50)
26 | Ac-[dY][dW]NTL[azaGly]L[Arg(Me)]W-NH2 [Compound No. 632] | 1.1
27 | Ac-[dY][dW]TSF[azaGly]L[Arg(Me)]W-NH2 [Compound No. 578] | 0.8
28 | Ac-[dY][dW]NT[Cha][azaGly]L[Arg(Me)]W-NH2 [Compound No. 696] | 0.5
29 | Me-D-Tyr-D-Trp-Asn-Thr-Phe-AzaGly-Leu-Arg(Me)-Trp-NH2 [Compound No. 570] | 0.5
30 | Ac-[dY][dW]N[NMeS]F[azaGly]L[Arg(Me)]W-NH2 [Compound No. 656] | 2.9
31 | Ac-[dY][dW]NTF[azaGly]S[Arg(Me)]W-NH2 [Compound No. 644] | 2.5
32 | Ac-[dY][dW][Dap](Ac)SF[azaGly]L[Arg(Me)]W-NH2 [Compound No. 584] | 0.4
33 | Ac-[dY][dW]DTF[azaGly]L[Arg(Me)]W-NH2 [Compound No. 647] | 10.6
34 | 3-Phenylpropionyl-Asn-Pic(2)-Phe-AzaGly-Leu-Arg(Me)-Trp-NH2 [Compound No. 531] | 1.8
35 | Ac-D-Tyr-D-Pya(4)-Asn-Thr-D-Phe-AzaGly-Leu-Arg(Me)-Trp-NH2 [Compound No. 603] | 1.7
36 | Ac-[dY][dW]D(NHMe)TF[azaGly]L[Arg(Me)]W-NH2 [Compound No. 702] | 0.6
37 | Ac-[dY]WNT[dF][azaGly]L[Arg(Me)]W-NH2 [Compound No. 586] | 0.3
38 | Ac-D-Tyr-D-Trp-Asn-Thr-Tyr-AzaGly-Leu-Arg(Me)-Trp-NH2 (Ac-[dY][dW]NTY[azaGly]L[Arg(Me)]W-NH2; SMILES CNC(=N)NCCC[C@H](NC(=O)[C@H](CC(C)C)NC(=O)NNC(=O)[C@H](Cc1ccc(O)cc1)NC(=O)[C@@H](NC(=O)[C@H](CC(N)=O)NC(=O)[C@@H](Cc1c[nH]c2ccccc12)NC(=O)[C@@H](Cc1ccc(O)cc1)NC(C)=O)[C@@H](C)O)C(=O)N[C@@H](Cc1c[nH]c2ccccc12)C(N)=O) [Compound No. 691] | 1.1
39 | Ac-D-Tyr-D-Trp-Asn-Aze(2)-Phe-AzaGly-Leu-Arg(Me)-Trp-NH2 [Compound No. 563] | 0.7
40 | 3-Phenylpropionyl-Asn-D-Pro-Phe-AzaGly-Leu-Arg(Me)-Trp-NH2 [Compound No. 533] | 9.7
41 | Ac-D-Tyr-D-Trp-Asn-Thr-Phe-AzaGly-Ile-Arg(Me)-Trp-NH2 (Ac-[dY][dW]NTF[azaGly]I[Arg(Me)]W-NH2; SMILES CC[C@H](C)[C@H](NC(=O)NNC(=O)[C@H](Cc1ccccc1)NC(=O)[C@@H](NC(=O)[C@H](CC(N)=O)NC(=O)[C@@H](Cc1c[nH]c2ccccc12)NC(=O)[C@@H](Cc1ccc(O)cc1)NC(C)=O)[C@@H](C)O)C(=O)N[C@@H](CCCNC(=N)NC)C(=O)N[C@@H](Cc1c[nH]c2ccccc12)C(N)=O) [Compound No. 678] | 1.1
42 | Ac-[dY][dW]NTF[azaGly]A[Arg(Me)]W-NH2 [Compound No. 641] | 3.5
43 | CNC(=N)NCCC[C@H](NC(=O)[C@H](CC(C)C)NC(=O)CNC(=O)[C@H](Cc1ccccc1)NC(=O)[C@H](CO)NC(=O)[C@H](CC(N)=O)NC(=O)[C@H](Cc1c[nH]c2ccccc12)NC(=O)[C@H](CC(N)=O)NC(=O)[C@@H](N)Cc1ccc(O)cc1)C(=O)N[C@@H](Cc1ccccc1)C(N)=O [Compound No. 82] | 1.0
44 | D-Arg-D-Arg-Acp-D-Tyr-D-Trp-Asn-Thr-Phe-AzaGly-Leu-Arg(Me)-Trp-NH2 [Compound No. 542] | 1.4
45 | Cyclopropanecarbonyl-Asn-Ser-Phe-AzaGly-Leu-Arg(Me)-Trp-NH2 [Compound No. 534] | 5.6
46 | Ac-D-Tyr-D-Pya(4)-Asn-Thr-Phe-AzaGly-Leu-Arg(Me)-Phe-NH2 [Compound No. 685] | 4.8
47 | CNC(=N)NCCC[C@H](NC(=O)[C@H](CC(C)C)NC(=O)NNC(=O)[C@H](Cc1ccccc1)NC(=O)[C@H](CO)NC(=O)[C@H](CC(N)=O)NC(=O)[C@H](CO)NC(=O)[C@H](N)Cc1ccc(O)cc1)C(=O)N[C@@H](Cc1ccccc1)C(N)=O [Compound No. 239, D-Tyr-Ser-Asn-Ser-Phe-AzaGly-Leu-Arg(Me)-Phe-NH2] (H-[dY]SNSF[azaGly]L[Arg(Me)]F-NH2) | 6.7
48 | D-Arg-Acp-D-Tyr-D-Trp-Abu-Ser-Phe-AzaGly-Leu-Arg(Me)-Trp-NH2 [Compound No. 561] | 1.6
49 | Ac-[dY][dT]NTF[azaGly]L[Arg(Me)]W-NH2 [Compound No. 628] | 4.4
